These are literature values, as cited in patent US20080248506A1, “Method of Monitoring Anti-Tumor Activity of an Hdac Inhibitor” (Pharmacyclics, Inc., priority 2004, published 2008).

One data set concerns H2AX. The conditions noted are these: myeloid leukemia cell lines (HL60, K562, MDS92L; n=3).

Turning to `Nc1ccccc1NC(=O)c1ccc(CNC(=O)OCc2cccnc2)cc1` [MS-275], the γ-H2AX accumulation result in the data set with γ-H2AX (compound by itself, no irradiation) is reported as “does not produce γ-H2AX accumulation”. The “number of irradiated cells that express γ-H2AX foci” value in the data set with γ-H2AX (with irradiation) is “increase the number of irradiated cells that express γ-H2AX foci”.

On to `CC(/C=C/C(=O)NO)=C\[C@@H](C)C(=O)c1ccc(N(C)C)cc1` [Trichostatin], for which, in the data set on H2AX, the H2AX phosphorylation entry is on record as “cause H2AX phosphorylation”.
